Assay results published in US9783531B2, “Thiazole-substituted aminoheteroaryls as spleen tyrosine kinase inhibitors” (Merck Sharp & Dohme Corp., priority 2013, dated 2017).

target: T1, recombinant human GST-SYK (Homo sapiens, UniProt P43405); assay: Homogeneous Time-Resolved Fluorescence (HTRF) assay for the recombinant human Syk enzyme; format: biochemical; settings: recombinant human GST-SYK 5 pM, ATP 25 μM, read-out: rhSyk
T1 construct: purchased Carna Biosciences 08-176
Procedure: Homogeneous Time-Resolved Fluorescence (HTRF) Assay for the Recombinant Human Syk Enzyme
A recombinant GST-hSYK fusion protein was used to measure potency of compounds to inhibit human Syk activity. The recombinant human GST-SYK (Carna Biosciences #08-176) (5 pM final concentration) was incubated with various concentrations of the inhibitor diluted in DMSO (0.1% final concentration) for 10 minutes at room temperature in 15 mM Tris-HCl (pH 7.5), 0.01% tween 20, 2 mM DTT in 384 well plate format. To initiate the reaction the biotinylated substrate peptide (250 nM final concentration) that contains the phosphorylation site for Syk was added with magnesium (5 mM final concentration) and ATP (25 μM final concentration). Final volume of the reaction was 10 μL. Phosphorylation of the peptide was allowed to proceed for 45′ at room temperature. To quench the reaction and detect the phosphorylated product, 2 nM of a Europium-anti-phosphotyrosine antibody (Perkin Elmer #AD0161) and 70 nM SA-APC (Perkin-Elmer #CR130-100) were added together in 15 mM Tris pH 7.5, 40 mM EDTA, 0.01% tween 20. Final volume of the quenching solution was 10 μL.
The resulting HTRF signal was measured after 30 minutes on an EnVision (Perkin-Elmer) reader using a time-resolved fluorescence protocol. Table A below lists activities as IC50 values (nM) for representative compounds of the invention.

SMILES	IC50
Cc1cc(Nc2ncn(C3CCC3)n2)cc(-c2cnc([C@]3(O)CC[C@@H](C(=O)O)C(C)(C)C3)s2)c1 (single isomer, unassigned) [Example 2.24, (1R,4S or 1S,4R)-4-(5-{3-[(1-cyclobutyl-1H-1,2,4-triazol-3-yl)amino]-5-methylphenyl}-1,3-thiazol-2-yl)-4-hydroxy-2,2-dimethylcyclohexanecarboxylic acid]	0.388 nM
Cc1cc(Nc2ncn(C3CCC3)n2)cc(-c2cnc([C@]3(O)CC[C@@H](C(=O)O)C(C)(C)C3)s2)c1 (single isomer, unassigned) [Example 2.25, (1R,4S or 1S,4R)-4-(5-{3-[(1-cyclobutyl-1H-1,2,4-triazol-3-yl)amino]-5-methylphenyl}-1,3-thiazol-2-yl)-4-hydroxy-2,2-dimethylcyclohexanecarboxylic acid]	2.54 nM
Cc1cc(Nc2ncn(C)n2)cc(-c2cnc(C3(O)CCC(C(=O)OC(C)(C)C)CC3)s2)c1 (centres unmarked) [Example 1.1, tert-butyl 4-hydroxy-4-(5-(3-methyl-5-((1-methyl-1H-1,2,4-triazol-3-yl)amino)phenyl)thiazol-2-yl)cyclohexanecarboxylate]	1160 nM
Cc1cc(Nc2ncn(C)n2)cc(-c2cnc(C3(O)CCC(C(=O)O)CC3)s2)c1 (centres unmarked) [Example 1.2, 4-hydroxy-4-(5-(3-methyl-5-((1-methyl-1H-1,2,4-triazol-3-yl)amino)phenyl)thiazol-2-yl)cyclohexanecarboxylic acid]	56.5 nM
CCn1cnc(Nc2cc(C)cc(-c3cnc(C4(O)CCC(C(=O)OC(C)(C)C)CC4)s3)c2)n1 (centres unmarked) [Example 2.1, tert-butyl 4-(5-(3-((1-ethyl-1H-1,2,4-triazol-3-yl)amino)-5-methylphenyl)thiazol-2-yl)-4-hydroxycyclohexanecarboxylate]	1110 nM
CCn1cnc(Nc2cc(C)cc(-c3cnc(C4(O)CCC(C(=O)O)CC4)s3)c2)n1 (centres unmarked) [Example 2.2, 4-(5-(3-((1-ethyl-1H-1,2,4-triazol-3-yl)amino)-5-methylphenyl)thiazol-2-yl)-4-hydroxycyclohexanecarboxylic acid]	10.1 nM
CCn1cnc(Nc2cc(C)cc(-c3cnc([C@]4(O)CC[C@@H](C(N)=O)CC4)s3)c2)n1 [Example 2.3, 4-(5-(3-((1-Ethyl-1H-1,2,4-triazol-3-yl)amino)-5-methylphenyl)thiazol-2-yl)-4-hydroxycyclohexanecarboxamide]	49.6 nM
Cc1cc(Nc2cc[nH]n2)cc(-c2cnc(C3(O)CCC3)s2)c1 [Example 2.4, 1-{5-[3-methyl-5-(1H-pyrazol-3-ylamino)phenyl]-1,3-thiazol-2-yl}cyclobutanol]	1140 nM
Cc1cc(Nc2cc(C)[nH]n2)cc(-c2cnc(C3(O)CCC3)s2)c1 [Example 2.5, 1-(5-{3-methyl-5-[(5-methyl-1H-pyrazol-3-yl)amino]phenyl}-1,3-thiazol-2-yl)cyclobutanol]	941 nM
Cc1cc(Nc2cc(C3CC3)[nH]n2)cc(-c2cnc(C3(O)CCC3)s2)c1 [Example 2.6, 1-(5-{3-[(5-cyclopropyl-1H-pyrazol-3-yl)amino]-5-methylphenyl}-1,3-thiazol-2-yl)cyclobutanol]	181 nM
Cc1cc(Nc2cc(C3CCC3)[nH]n2)cc(-c2cnc(C3(O)CCC3)s2)c1 [Example 2.7, 1-(5-{3-[(5-cyclobutyl-1H-pyrazol-3-yl)amino]-5-methylphenyl}-1,3-thiazol-2-yl)cyclobutanol]	274 nM
Cc1cc(Nc2n[nH]c(C)n2)cc(-c2cnc(C3(O)CCC3)s2)c1 [Example 2.9, 1-(5-{3-methyl-5-[(5-methyl-1H-1,2,4-triazol-3-yl)amino]phenyl}-1,3-thiazol-2-yl)cyclobutanol]	1300 nM
Cc1cc(Nc2ncn(C)n2)cc(-c2cnc(C3(O)CCC3)s2)c1 [Example 2.10, 1-(5-{3-methyl-5-[(1-methyl-1H-1,2,4-triazol-3-yl)amino]phenyl}-1,3-thiazol-2-yl)cyclobutanol]	188 nM
Cc1cc(Nc2ncn(C(C)C)n2)cc(-c2cnc(C3(O)CCC3)s2)c1 [Example 2.11, 1-[5-(3-methyl-5-{[1-(1-methylethyl)-1H-1,2,4-triazol-3-yl]amino}phenyl)-1,3-thiazol-2-yl]cyclobutanol]	49.2 nM
CCn1cnc(Nc2cc(C)cc(-c3cnc(C4(O)CCC4)s3)c2)n1 [Example 2.12, 1-(5-{3-[(1-ethyl-1H-1,2,4-triazol-3-yl)amino]-5-methylphenyl}-1,3-thiazol-2-yl)cyclobutanol]	49.1 nM
CCCn1cnc(Nc2cc(C)cc(-c3cnc(C4(O)CCC4)s3)c2)n1 [Example 2.13, 1-(5-{3-methyl-5-[(1-propyl-1H-1,2,4-triazol-3-yl)amino]phenyl}-1,3-thiazol-2-yl)cyclobutanol]	96.7 nM
Cc1cc(Nc2ncn(-c3ccccc3)n2)cc(-c2cnc(C3(O)CCC3)s2)c1 [Example 2.14, 1-(5-{3-methyl-5-[(1-phenyl-1H-1,2,4-triazol-3-yl)amino]phenyl}-1,3-thiazol-2-yl)cyclobutanol]	365 nM
Cc1cc(Nc2ncn(C(=O)N(C)C)n2)cc(-c2cnc(C3(O)CCC3)s2)c1 [Example 2.15, 3-({3-[2-(1-hydroxycyclobutyl)-1,3-thiazol-5-yl]-5-methylphenyl}amino)-N,N-dimethyl-1H-1,2,4-triazole-1-carboxamide]	3860 nM
Cc1cc(Nc2ncn(C3CCCCC3)n2)cc(-c2cnc(C3(O)CCC3)s2)c1 [Example 2.16, 1-(5-{3-[(1-cyclohexyl-1H-1,2,4-triazol-3-yl)amino]-5-methylphenyl}-1,3-thiazol-2-yl)cyclobutanol]	115 nM
Cc1cc(Nc2ncn(C3CCC3)n2)cc(-c2cnc(C3(O)CCC3)s2)c1 [Example 2.17, 1-(5-{3-[(1-cyclobutyl-1H-1,2,4-triazol-3-yl)amino]-5-methylphenyl}-1,3-thiazol-2-yl)cyclobutanol]	7.41 nM
Cc1cc(Nc2ncnn2C2CCC2)cc(-c2cnc(C3(O)CCC3)s2)c1 [Example 2.18, 1-(5-{3-[(1-cyclobutyl-1H-1,2,4-triazol-5-yl)amino]-5-methylphenyl}-1,3-thiazol-2-yl)cyclobutanol]	7710 nM
Cc1cc(Nc2ncn(Cc3ccccc3)n2)cc(-c2cnc(C3(O)CCC3)s2)c1 [Example 2.19, 1-(5-{3-[(1-benzyl-1H-1,2,4-triazol-3-yl)amino]-5-methylphenyl}-1,3-thiazol-2-yl)cyclobutanol]	325 nM
Cc1cc(Nc2ncn(C(C)C)n2)cc(-c2cnc([C@]3(O)CC[C@@H](C(=O)OC(C)(C)C)CC3)s2)c1 [Example 2.20, tert-butyl cis-4-hydroxy-4-[5-(3-methyl-5-{[1-(1-methylethyl)-1H-1,2,4-triazol-3-yl]amino}phenyl)-1,3-thiazol-2-yl]cyclohexanecarboxylate]	1000 nM
Cc1cc(Nc2ncnn2C2CCC2)cc(-c2cnc([C@]3(O)CC[C@@H](C(=O)O)CC3)s2)c1 [Example 2.21, cis-4-(5-{3-[(1-cyclobutyl-1H-1,2,4-triazol-5-yl)amino]-5-methylphenyl}-1,3-thiazol-2-yl)-4-hydroxycyclohexane-carboxylic acid]	3310 nM
Cc1cc(Nc2ncn(C(C)C)n2)cc(-c2cnc([C@]3(O)CC[C@@H](C(=O)O)CC3)s2)c1 [Example 2.22, cis-4-hydroxy-4-[5-(3-methyl-5-{[1-(1-methylethyl)-1H-1,2,4-triazol-3-yl]amino}phenyl)-1,3-thiazol-2-yl]cyclohexanecarboxylic acid]	9.94 nM
Cc1cc(Nc2ncn(C(C)C)n2)cc(-c2cnc([C@]3(O)CC[C@@H](C(N)=O)CC3)s2)c1 [Example 2.23, cis-4-hydroxy-4-[5-(3-methyl-5-{[1-(1-methylethyl)-1H-1,2,4-triazol-3-yl]amino}phenyl)-1,3-thiazol-2-yl]cyclohexanecarboxamide]	36.8 nM

system: not given; assay: not given; settings: dosed intranasally, phase I/II study, allergic rhinitis; cited from earlier work

SMILES	PGD2 (immune mediator)	clinical safety
Oc1cccc(Nc2ncc(F)c(Nc3cccc(O)c3)n2)c1 [Example R112]	statistically significant decrease in PGD2	safe across a range of indicators

system: not given; assay: not given; settings: phase II clinical trial, allergic rhinitis; cited from earlier work

SMILES	efficacy versus placebo
Oc1cccc(Nc2ncc(F)c(Nc3cccc(O)c3)n2)c1 [Example R112]	lack of efficacy versus placebo
